In patent publication US20090048216A1, “INTRAVENOUS AND ORAL DOSING OF A DIRECT-ACTING AND REVERSIBLE P2Y12 INHIBITOR” (Portola Pharmaceuticals, Inc., priority 2007, published 2009):
Entries after “also recorded” stand apart in the source; their conditions may differ.

Assays:
[1] = one week, 40° C., 75% RH
[2] = tested on: ADP-induced human platelet aggregation; assay: Inhibition of ADP-mediated platelet aggregation in vitro (PRP assay); type: cell-based; conditions: human platelet-rich plasma
Method: For preparation of human platelet-rich plasma for aggregation assays, human venous blood was collected from healthy, drug-free volunteers into 0.38% sodium citrate (0.013 M, pH 7.0 final). […] This preparation of PRP can subsequently be used for aggregation assays in either a 96-well plate or standard cuvette aggregometry.
For cuvette light transmittance aggregation assays, serial dilutions (1:3) of test compounds were prepared in 100% DMSO in a 96 well V-bottom plate (final DMSO concentration in the cuvette was 0.6%). […] The aggregation reaction is recorded for ˜5 min, and maximum extent of aggregation is determined by the difference in extent of aggregation at baseline, compared to the maximum aggregation that occurs during the five minute period of the assay. Inhibition of aggregation was calculated as the maximum aggregation observed in the presence of inhibitor, compared to that in the absence of inhibitor. […]
Inhibition of ADP-dependent aggregation was also determined in 96-well flat-bottom microtiter plates using a microtiter plate shaker and plate reader similar to the procedure described by Frantantoni et al., Am. […] The OD of the samples is then determined at 450 nm using a microtiter plate reader (Softmax, Molecular Devices, Menlo Park, Calif.) resulting in the 0 minute reading. […]

P2Y12 receptor = target: T1, P2Y12 receptor (Homo sapiens, UniProt Q9H244); assay: platelet ADP receptor binding assay (ARB): inhibition of [3H]2-MeS-ADP binding to platelets; conditions: whole platelets
T1 construct: endogenous in cells; host or cells: apyrase-washed human platelets (outdated from hospital blood banks, or fresh)
T1 sequence (Q9H244 whole entry): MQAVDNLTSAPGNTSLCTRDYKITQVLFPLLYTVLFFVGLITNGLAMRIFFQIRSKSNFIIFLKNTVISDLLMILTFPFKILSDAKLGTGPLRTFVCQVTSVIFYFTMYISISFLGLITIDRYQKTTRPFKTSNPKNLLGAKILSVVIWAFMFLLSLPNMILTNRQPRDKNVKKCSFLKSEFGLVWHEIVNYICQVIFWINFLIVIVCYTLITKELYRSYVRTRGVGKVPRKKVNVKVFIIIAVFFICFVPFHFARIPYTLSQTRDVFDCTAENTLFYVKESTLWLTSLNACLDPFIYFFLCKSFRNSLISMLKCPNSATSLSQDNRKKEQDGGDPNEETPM
Method: 1. The Ability of Candidate Molecules to Inhibit the Binding of [3H]2-MeS-ADP to the P2Y12 Receptor on Platelets was Determined Using a Radioligand Binding Assay.
Utilizing this assay the potency of inhibition of such compounds with respect to [^3H]2-MeS-ADP binding to whole platelets is determined. Under the conditions described in II (3) below, the binding of [^3H]2-MeS-ADP is solely due to the interaction of this ligand with the P2Y12 receptor, in that all the specific binding measured in this assay is compatable with a P2Y12 antagonist (i.e., the specific binding is reduced to background levels by competition with an excess of P2Y12 antagonist, with no competition of binding when a P2Y1 antagonist is pre-incubated with the platelet preparation). […]
A platelet ADP receptor binding assay (ARB) using the tritiated potent agonist ligand [3H]2-MeS-ADP (Jantzen, H. M. et al. (1999) Thromb. Hemost. 81:111-117) has been adapted to the 96-well microtiter format. […] Total binding is determined in the absence of test compounds. […] The platelet-bound radioactivity on the filtermats is determined in a scintillation counter (Microbeta 1450, Wallac Inc., Gaithersburg, Md.). Specific binding is determined by subtraction of non-specific binding from total binding, and specific binding in the presence of test compounds is expressed as % of specific binding in the absence of test compound dilutions. […]

[3] = Bleeding time (Surgicutt device) after IV infusion; type: in vivo, human
Method: Bleeding time was measured using the Surgicutt device at 25 min (Cmax) and 8 hrs post dose. […] However, this effect was reversed by 8 hrs post dosing.

[4] = tested on: ADP induced platelet aggregation
Method: (§1) Human venous blood was collected in a plastic syringe and immediately transferred to a plastic tube containing a fixed amount of anticoagulant (e.g., 5 μM (final) of a proprietary Portola anticoagulant C921-78 (a factor Xa inhibitor (see, Betz A, Wong P W, Sinha U. Inhibition of factor Xa by a peptidyl-alpha-ketothiazole involves 2 steps: evidence for a stabilizing conformational change. Biochemistry. 1999; 38: 14582-14591)) and mixed gently by inversion. Platelet-rich plasma (PRP) was prepared by centrifugation of whole blood at 160×g for 20 minutes at room temperature. The PRP layer was removed, transferred to a new tube, and the platelet count was adjusted, if necessary, to achieve a platelet concentration of ˜3×10^8 platelets/ml using platelet-poor plasma (PPP). PPP is prepared by centrifugation of the remaining blood sample (after removal of PRP) for 20 minutes at 800×g. This preparation of PRP was used for standard light transmittance aggregometry assays. A fixed volume of PRP (0.3-0.5 mls) was transferred to an aggregometry cuvette, and the same volume of PPP was used to blank the machine. While stirring the PRP, a sufficient volume of adenosine diphosphate (ADP, Sigma-Aldrich) was added to achieve a final concentration of 10 μM in the cuvette, and the change in light transmittance was recorded for 6 minutes. The maximum extent of aggregation as well as the final (6 min after initiation of the aggregation reaction) extent of aggregation was determined from each reaction.
(§2) The compound of Formula I was the potassium salt (Polymorph B) dissolved in water.

[5] = tested on: ADP-induced platelet aggregation; conditions: IV, at the higher dosages
Method: (§3) Human venous blood was collected in a plastic syringe and immediately transferred to a plastic tube containing a fixed amount of anticoagulant (e.g., 5 μM (final) of a proprietary Portola anticoagulant C921-78 (a factor Xa inhibitor (see, Betz A, Wong P W, Sinha U. Inhibition of factor Xa by a peptidyl-alpha-ketothiazole involves 2 steps: evidence for a stabilizing conformational change. Biochemistry. 1999; 38: 14582-14591)) and mixed gently by inversion. Platelet-rich plasma (PRP) was prepared by centrifugation of whole blood at 160×g for 20 minutes at room temperature. The PRP layer was removed, transferred to a new tube, and the platelet count was adjusted, if necessary, to achieve a platelet concentration of ˜3×10^8 platelets/ml using platelet-poor plasma (PPP). PPP is prepared by centrifugation of the remaining blood sample (after removal of PRP) for 20 minutes at 800×g. This preparation of PRP was used for standard light transmittance aggregometry assays. […] While stirring the PRP, a sufficient volume of adenosine diphosphate (ADP, Sigma-Aldrich) was added to achieve a final concentration of 10 μM in the cuvette, and the change in light transmittance was recorded for 6 minutes. The maximum extent of aggregation as well as the final (6 min after initiation of the aggregation reaction) extent of aggregation was determined from each reaction.

[6] = Pharmacokinetics of single oral liquid doses in human subjects; type: in vivo
[7] = tested on: ADP-induced platelet aggregation; assay: animal or person; conditions: Homo sapiens, iv, 0.1 h, read-out: IC50 for inhibition of ADP-induced late (6 min) platelet aggregation vs plasma concentration (Emax model)
Method: as §3

[8] = tested on: ADP induced platelet aggregation; assay: animal or person; conditions: Homo sapiens, po, 0.1 h, read-out: IC50 of inhibition of ADP-induced platelet aggregation vs plasma concentration (PK-PD), oral study, aggregation at 6 minutes, ex vivo
Method: as §1, §2

[9] = Tolerability and safety of single oral doses in human subjects; conditions: oral doses 10-800 mg
Method: A single center, double-blind, placebo-controlled study of a compound of Formula I was conducted in human subjects. The compound of Formula I was the potassium salt (Polymorph B) dissolved in water.

[10] = Tolerability and safety of single intravenous doses in human subjects; type: in vivo
Description: To determine the tolerability, the pharmacokinetic (PK) and pharmacodynamic (PD) effects of single ascending IV doses of a compound of Formula I (the potassium salt of polymorph B, or PRT128) in healthy subjects, ages 18-50.

[11] = tested on: collagen-induced platelet thrombosis; assay: Real Time Thrombosis Profiler (RTTP) ex vivo after oral dosing; type: in vivo, human; conditions: 6 hours post dosing
Method: Rhodamine 6G (1.25 μg/ml final concentration) was added to the blood, mixed by gentle inversion, and the tube was incubated at ˜37° C. for 20 min. Subsequently, the rhodamine-labeled blood was perfused through a rectangular glass capillary coated with type III collagen at an arterial shear rate (˜1600 sec^−1) and the extent of thrombus formation on the collagen surface was monitored for 5-7 min by the accumulation of fluorescently-labeled platelets using a video camera. The extent of the overall thrombotic process (e.g., accumulation of fluorescently-labeled platelets over time) was determined by analysis of various parameters derived from the curve generated from mean fluorescence intensity vs time (sec). These parameters may include slope, area under the curve, and endpoint.
In yet another part of the study, the effects of the oral treatments in the human subjects was investigated using a Real Time Thrombosis Profiler (RTTP) as the ex vivo assay method. The set up and principles of operation of the RTTP are depicted in FIGS. 26A, B, and C. There was a dose-dependent decrease in the RTTP collagen-induced platelet thrombosis for the subjects given the compound. A dose of 100 mg of the compound produced about a 70% inhibition. A dose of 30 mg of the compound produced a 53 percent inhibition.

[12] = Pharmacokinetics of single IV doses in human subjects; type: in vivo; conditions: IV 1-40 mg
[13] = Accelerated stability of solid forms
[14] = tested on: collagen induced platelet aggregation; assay: Ex vivo collagen-induced platelet aggregation after oral dosing, with or without aspirin; type: in vivo, human; conditions: aspirin alone, predosed for three days at 325 mg/day
Description: In a further aspect of the study, the effect of aspirin and the compound together on the inhibition of collagen-induced platelet aggregation was investigated.

CNc1cc2[nH]c(=O)n(-c3ccc(NC(=O)[N-]S(=O)(=O)c4ccc(Cl)s4)cc3)c(=O)c2cc1F.[Na+] [amorphous form of the sodium salt]
change in chemical purity in accelerated stability test [1]: No change

CNc1cc2[nH]c(=O)n(-c3ccc(NC(=O)NS(=O)(=O)c4ccc(Cl)s4)cc3)c(=O)c2cc1F [Example 2]
IC50 [2]: < 10 µM
IC50 (P2Y12 receptor): < 0.05 µM

CNc1cc2[nH]c(=O)n(-c3ccc(NC(=O)[N-]S(=O)(=O)c4ccc(Cl)s4)cc3)c(=O)c2cc1F.[K+] [PRT128]
dose at which pre-defined bleeding time stopping criteria (>20 min and 3 fold prolongation from baseline) were reached [3]: 40 mg
bleeding time ([3]; 25 min (Cmax)): prolonged dose-dependently
bleeding time effect at 8 hrs ([3]; 8 hrs post dose, potassium salt): reversed; also recorded: returned to baseline
bleeding time at potential clinically therapeutic anti-thrombotic level of 40% ([3]; listed as studied compound, potassium salt): without substantially affecting bleeding time
bleeding time at potential clinically therapeutic anti-thrombotic level of 40% ([3]; potassium salt): did not increase bleeding time
inhibition of ADP-induced platelet aggregation ([4]; oral 100 mg, four hours post dose): 60%
IC50 of inhibition of ADP-induced platelet aggregation vs plasma concentration (PK-PD) ([4]; oral study, aggregation at 6 minutes, ex vivo, listed as potassium salt, potassium salt): ≈ 450 ng/ml
maximum inhibition of ADP-induced platelet aggregation measured at six minutes ([4]; oral, at the higher dosages): 100%
dose achieving maximum effect (maximum amplitude aggregation) ([4]; oral, four hour time point): about 200 mg
maximum inhibition of ADP-induced platelet aggregation measured at six minutes [5]: 100%
plasma PK increases with dose ([6]; oral, 10-100 mg): dose proportional
half-life ([6]; plasma, single oral liquid dose, read-out: terminal half-life (converted)): ~12 h
IC50 [7]: 0.601 µg/mL
IC50 [8]: ~0.451 µg/mL
serious adverse events [9]: no serious adverse events
tolerability [9]: well tolerated
ECG ([10]; IV 1-40 mg): No significant changes
serious adverse events ([10]; IV 1-40 mg): No serious adverse events
standard clinical chemistry, hematology and coagulation labs ([10]; IV 1-40 mg): no clinically significant changes or trends
vital signs ([10]; IV 1-40 mg): No significant changes or trends
tolerability ([10]; IV 1-40 mg over 20 minutes, human): well tolerated
tolerability ([10]; IV bolus up to 45 mg): equally well tolerated
inhibition of RTTP collagen-induced platelet thrombosis ([11]; oral 30 mg): 53%
inhibition of RTTP collagen-induced platelet thrombosis ([11]; oral 100 mg): ~70%
drug exposure with dose [12]: dose proportional

CNc1cc2[nH]c(=O)n(-c3ccc(NC(=O)[N-]S(=O)(=O)c4ccc(Cl)s4)cc3)c(=O)c2cc1F.[K+] [Form A]
change in chemical purity in accelerated stability test [1]: No change
stability of solid form [13]: stable

ortho-acetylsalicylic acid [aspirin]
reduction in collagen induced platelet aggregation assay [14]: ~40%
